In the supplement of paper PMC10307832:

Columns and labels:
Test in all cases: relative viability (nuclei count vs DMSO), 5 days (fraction); higher = more cells survive
VX-11e + Linsitinib = compound: CC1=CN=C(N=C1C2=CNC(=C2)C(=O)N[C@H](CO)C3=CC(=CC=C3)Cl)NC4=C(C=C(C=C4)F)Cl [VX-11e] + C[C@]1(O)C[C@@H](c2nc(-c3ccc4ccc(-c5ccccc5)nc4c3)c3c(N)nccn32)C1 [Linsitinib] (partner 1 µM)
In short: (§1)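 Relative viability equals treated-well nuclei counts divided by vehicle-well nuclei counts. Counts came from 4× images of lung cancer cell lines grown in 1536-well plates for 5 days after pin-tool dosing on the day after seeding. Dosing used one drug alone or a fixed anchor-drug dose plus five library-drug doses (not always all listed) in √10 steps, and values are medians of duplicate plates.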

VX-11e + Alpelisib = compound: CC1=CN=C(N=C1C2=CNC(=C2)C(=O)N[C@H](CO)C3=CC(=CC=C3)Cl)NC4=C(C=C(C=C4)F)Cl [VX-11e] + Cc1nc(NC(=O)N2CCC[C@H]2C(N)=O)sc1-c1ccnc(C(C)(C)C(F)(F)F)c1 [Alpelisib] (partner 2 µM)
In short: as §1

VX-11e + Pictilisib = compound: CC1=CN=C(N=C1C2=CNC(=C2)C(=O)N[C@H](CO)C3=CC(=CC=C3)Cl)NC4=C(C=C(C=C4)F)Cl [VX-11e] + CS(=O)(=O)N1CCN(Cc2cc3nc(-c4cccc5[nH]ncc45)nc(N4CCOCC4)c3s2)CC1 [Pictilisib] (partner 1 µM)
In short: as §1

VX-11e + Decitabine = compound: CC1=CN=C(N=C1C2=CNC(=C2)C(=O)N[C@H](CO)C3=CC(=CC=C3)Cl)NC4=C(C=C(C=C4)F)Cl [VX-11e] + Nc1ncn([C@H]2C[C@H](O)[C@@H](CO)O2)c(=O)n1 [Decitabine] (partner 2 µM)
In short: as §1

Cell Line | relative viability (VX-11e + Linsitinib; first compound 0.1265 µM) | relative viability (VX-11e + Linsitinib; first compound 0.4 µM) | relative viability (VX-11e + Linsitinib; first compound 4 µM) | relative viability (VX-11e + Alpelisib; first compound 0.1265 µM) | relative viability (VX-11e + Alpelisib; first compound 0.4 µM) | relative viability (VX-11e + Alpelisib; first compound 4 µM) | relative viability (VX-11e + Pictilisib; first compound 0.1265 µM) | relative viability (VX-11e + Pictilisib; first compound 0.4 µM) | relative viability (VX-11e + Pictilisib; first compound 4 µM) | relative viability (VX-11e + Decitabine; first compound 0.04 µM) | relative viability (VX-11e + Decitabine; first compound 0.1265 µM) | relative viability (VX-11e + Decitabine; first compound 0.4 µM) | relative viability (VX-11e + Decitabine; first compound 1.265 µM) | relative viability (VX-11e + Decitabine; first compound 4 µM) | relative viability (VX-11e + Linsitinib; first compound 0.04 µM) | relative viability (VX-11e + Linsitinib; first compound 1.265 µM) | relative viability (VX-11e + Alpelisib; first compound 0.04 µM) | relative viability (VX-11e + Alpelisib; first compound 1.265 µM) | relative viability (VX-11e + Pictilisib; first compound 0.04 µM) | relative viability (VX-11e + Pictilisib; first compound 1.265 µM)
NCI-H650 | 0.79 | 0.957 | 0.88 | 0.961 | 1.14 | 0.876 | 0.927 | 1.23 | 0.819 | 0.386 | 0.312 | 0.325 | 0.403 | 0.371 | – | – | – | – | – | –
A549 | 0.485 | 0.448 | 0.169 | 0.622 | 0.451 | 0.0519 | 0.475 | 0.316 | 0.0408 | – | 0.264 | 0.0929 | 0.249 | 0.202 | 0.548 | 0.31 | 0.737 | 0.313 | 0.481 | 0.0889
NCI-H322M | – | 0.781 | 0.534 | – | 0.82 | 0.53 | – | 0.453 | 0.389 | 0.737 | 0.723 | 0.683 | 0.607 | 0.614 | 1.01 | 0.688 | 0.709 | 0.729 | 0.496 | 0.439
LOU-NH91 | 0.952 | – | 0.733 | 0.689 | – | 0.538 | 0.54 | – | 0.504 | 0.829 | 0.777 | – | 0.85 | 0.768 | 0.919 | 0.946 | 0.692 | 0.691 | 0.474 | 0.501
EPLC-272H | 1.04 | 0.927 | 0.562 | 0.702 | 0.823 | 0.512 | 0.299 | 0.266 | 0.233 | 0.331 | 0.337 | – | 0.29 | 0.178 | 0.923 | 0.934 | 0.742 | 0.835 | 0.301 | 0.213
NCI-H2009 | 1.11 | 1.18 | 0.259 | 1.1 | 1.07 | 0.285 | 0.671 | 0.478 | 0.186 | 0.377 | 0.394 | 0.369 | 0.293 | 0.244 | 1.17 | 1.09 | 1.2 | 0.571 | 0.712 | 0.23
BEN | 0.701 | 0.923 | 0.783 | 0.906 | 1.04 | 0.806 | 0.533 | 0.628 | 0.468 | 0.505 | 0.645 | 0.712 | 0.573 | 0.654 | 1.04 | 0.54 | 1.14 | 0.612 | 0.465 | 0.392
NCI-H1734 | 0.789 | 0.814 | 0.536 | 0.691 | 0.648 | 0.41 | 0.39 | 0.376 | 0.245 | 0.482 | 0.523 | 0.428 | 0.538 | 0.368 | 0.797 | 0.837 | 0.689 | 0.674 | 0.358 | 0.31
NCI-H3122 | 1.01 | 0.974 | 0.58 | 0.753 | 0.566 | 0.329 | 0.57 | 0.255 | 0.212 | 0.418 | 0.484 | 0.335 | 0.39 | 0.209 | 0.971 | 0.929 | 0.652 | 0.672 | 0.633 | 0.406
NCI-H661 | 0.617 | 0.568 | 0.394 | 0.831 | 0.606 | 0.511 | 0.462 | 0.4 | 0.363 | 0.514 | 0.491 | 0.502 | 0.52 | 0.432 | 0.598 | 0.501 | 0.403 | 0.586 | 0.324 | 0.403
COR-L 105 | 0.946 | 0.568 | 0.267 | 0.973 | 0.799 | 0.357 | 0.41 | 0.362 | 0.322 | 0.685 | 0.701 | 0.712 | 0.705 | 0.333 | 1.04 | 0.571 | 0.929 | 0.329 | 0.341 | 0.29
H3255 | 0.815 | 0.971 | 0.879 | 0.617 | 0.436 | 0.562 | 0.428 | 0.482 | 0.316 | 0.667 | 0.603 | 0.482 | 0.48 | 0.332 | 1.01 | 0.956 | 0.662 | 0.688 | 0.476 | 0.596
LCLC-97TM1 | 0.172 | – | 0.116 | 0.253 | – | 0.12 | 0.138 | – | 0.0889 | 0.259 | 0.209 | 0.221 | – | 0.171 | 0.158 | 0.203 | 0.285 | 0.192 | 0.137 | 0.143
NCI-H441 | 0.584 | – | 0.419 | 0.709 | – | 0.633 | 0.518 | – | 0.24 | 0.282 | 0.273 | – | 0.218 | 0.306 | 0.542 | 0.657 | 0.804 | 0.977 | 0.349 | 0.371
HCC-366 | 0.602 | – | 0.0744 | 0.431 | – | 0.0901 | 0.101 | 0.15 | 0.081 | 0.402 | 0.348 | – | 0.322 | 0.217 | 0.774 | 0.348 | 0.446 | 0.239 | 0.159 | 0.12
UMC-11 | 0.937 | 1 | 0.989 | 1 | 0.962 | 0.973 | 0.943 | 0.755 | 0.609 | – | 0.495 | 0.472 | 0.454 | 0.594 | 0.935 | 1 | 0.921 | 0.97 | 0.355 | 0.401
NCI-H358 | 0.52 | – | 0.277 | 0.89 | – | 0.237 | 0.313 | – | 0.254 | 0.232 | 0.203 | 0.124 | 0.222 | 0.142 | 0.738 | 0.558 | 0.857 | 0.541 | 0.3 | 0.372
